Source: patent US20230203041A1, “ANTAGONISTS OF THE ADENOSINE A2A RECEPTOR” (AdoRx Therapeutics Limited, priority 2020, published 2023)

Experiments:
[1] = clinical trials, preliminary data, cited from earlier work
[2] = biological target: T1, human Adenosine A1 receptor (Homo sapiens, UniProt P30542); assay: Adenosine receptor TR-FRET binding assay (CA200645 displacement), A1
T1 sequence (P30542 1-326): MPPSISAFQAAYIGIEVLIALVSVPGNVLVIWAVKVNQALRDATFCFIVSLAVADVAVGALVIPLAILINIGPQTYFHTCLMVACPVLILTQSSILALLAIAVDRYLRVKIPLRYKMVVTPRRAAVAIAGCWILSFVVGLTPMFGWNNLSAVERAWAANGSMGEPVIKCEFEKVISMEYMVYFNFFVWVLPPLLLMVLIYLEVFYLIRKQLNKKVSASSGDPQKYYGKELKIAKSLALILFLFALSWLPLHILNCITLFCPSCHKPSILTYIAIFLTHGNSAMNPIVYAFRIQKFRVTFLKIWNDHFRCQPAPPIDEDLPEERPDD

[3] = system: CD8+ T cells in human whole blood; assay: Measurement of pCREB in CD8+ T cells in human whole blood; type: cell-based; settings: T-cell, 1 h; heparinised human whole blood, rolipram, 3 μM NECA, 60 min, phospho-CREB in CD8+ T cells by FACS
Summary of the method: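 Heparinised human whole blood preincubated 20 min at 37 °C with serially diluted A2a antagonists plus rolipram, then stimulated 60 min with 3 μM NECA (final). After fixation and RBC lysis, permeabilized leukocytes stained for phospho-CREB and CD8; pCREB in CD8+ T cells read by flow cytometry.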

[4] = biological target: T2, human Adenosine A2b receptor (Homo sapiens, UniProt P29275); assay: Adenosine receptor TR-FRET binding assay (CA200645 displacement), A2b; settings: 30 nM CA200645, CHO cell membranes, 2 hours at room temperature
T2 construct: expressed in transfected cells; host or cells: CHO cell membranes
T2 sequence (P29275 1-332): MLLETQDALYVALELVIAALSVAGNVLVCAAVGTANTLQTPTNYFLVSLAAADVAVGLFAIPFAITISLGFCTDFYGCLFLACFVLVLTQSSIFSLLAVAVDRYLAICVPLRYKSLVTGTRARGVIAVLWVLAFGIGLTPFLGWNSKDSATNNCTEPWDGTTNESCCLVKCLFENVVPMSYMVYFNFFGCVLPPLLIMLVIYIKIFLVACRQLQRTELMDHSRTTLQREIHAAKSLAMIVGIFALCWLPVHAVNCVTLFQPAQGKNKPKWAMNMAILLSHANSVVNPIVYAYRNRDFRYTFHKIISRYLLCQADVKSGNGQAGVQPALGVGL

[5] = system: human PBMCs; assay: CD3/CD28 stimulated IL-2 release NECA reversal assay in human PBMCs; type: cell-based; settings: PBMC, CD3/CD28 antibody stimulated, 1 uM NECA, 24 hours, IL-2 in culture supernatant;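 note: dose-response as % inhibition where 100% equals no-NECA control wells with CD3/CD28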
Summary of the method: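 PBMCs from citrated donor blood, 50,000 cells/well on plate-bound CD3 antibody (1 ug/ml), with 1 ug/ml CD28 antibody, 1 uM NECA and antagonist at 0.003-10 μM final. After 24 h at 37° C, supernatant IL-2 was measured by MSD immunoassay.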

[6] = biological target: T3, human Adenosine A3 receptor (Homo sapiens, UniProt P0DMS8); assay: Adenosine receptor TR-FRET binding assay (CA200645 displacement), A3
T3 sequence (P0DMS8 1-318): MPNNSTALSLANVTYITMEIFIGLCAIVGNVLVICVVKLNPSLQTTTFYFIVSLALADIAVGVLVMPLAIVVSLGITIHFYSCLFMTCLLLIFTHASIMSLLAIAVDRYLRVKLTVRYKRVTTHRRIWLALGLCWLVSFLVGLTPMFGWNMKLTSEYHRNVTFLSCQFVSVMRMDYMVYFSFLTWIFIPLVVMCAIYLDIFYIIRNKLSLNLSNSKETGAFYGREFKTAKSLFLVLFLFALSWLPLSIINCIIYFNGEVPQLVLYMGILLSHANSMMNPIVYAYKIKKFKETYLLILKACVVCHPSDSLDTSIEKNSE

[7] = biological target: T4, human Adenosine A2a receptor (Homo sapiens, UniProt P29274); assay: Adenosine receptor TR-FRET binding assay (CA200645 displacement), A2a; settings: 100 nM CA200645, CHO cell membranes, 2 hours at room temperature
T4 construct: expressed in transfected cells; host or cells: CHO cell membranes

[8] = system: solid tumors; settings: Rutkowski et al. 2019; cited from earlier work
[9] = biological target: programmed death receptor-1 (PD-1) (Homo sapiens, UniProt Q15116); settings: cited from earlier work
Sequence of programmed death receptor-1 (PD-1) (Q15116 25-288): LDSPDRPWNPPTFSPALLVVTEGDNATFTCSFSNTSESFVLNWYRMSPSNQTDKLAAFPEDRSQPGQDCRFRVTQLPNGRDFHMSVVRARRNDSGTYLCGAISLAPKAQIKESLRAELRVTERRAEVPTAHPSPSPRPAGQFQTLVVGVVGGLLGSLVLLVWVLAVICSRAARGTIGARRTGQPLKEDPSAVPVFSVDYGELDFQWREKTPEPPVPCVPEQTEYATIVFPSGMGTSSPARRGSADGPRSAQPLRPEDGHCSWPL

T4 sequence (P29274 whole entry): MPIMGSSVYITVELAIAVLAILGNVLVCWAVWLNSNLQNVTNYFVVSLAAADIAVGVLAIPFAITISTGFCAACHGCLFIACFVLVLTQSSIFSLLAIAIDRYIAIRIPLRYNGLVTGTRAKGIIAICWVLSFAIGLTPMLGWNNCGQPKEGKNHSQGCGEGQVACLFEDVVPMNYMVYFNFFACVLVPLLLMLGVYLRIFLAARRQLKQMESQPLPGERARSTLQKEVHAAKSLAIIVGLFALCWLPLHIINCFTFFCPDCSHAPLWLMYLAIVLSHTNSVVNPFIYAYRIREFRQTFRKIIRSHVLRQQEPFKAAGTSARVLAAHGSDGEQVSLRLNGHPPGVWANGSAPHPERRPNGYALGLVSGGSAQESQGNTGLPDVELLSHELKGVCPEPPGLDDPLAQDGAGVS

Cc1ccc(-c2nc(N)nc3c2nnn3Cc2cccc(CO[C@H]3CCOC3)n2)o1 [CPI-444]
tolerability ([1]; monotherapy and combination with atezolizumab): well tolerated
CD8+ T infiltration into tumour tissue ([1]; early indications): enhancing CD8+ T infiltration into tumour tissue
tumour size ([1]; early indications): reducing tumour size

CC(=O)N1CCC(Nc2ccn3nc(-c4cccc(C#N)c4)c(-c4cc(C)nc(C)c4)c3n2)CC1 [Example 105.1, 3-[5-[(1-Acetyl-4-piperidyl)amino]-3-(2,6-dimethyl-4-pyridyl)pyrazolo[1,5-a]pyrimidin-2-yl]benzonitrile]
Ki [2]: 692 nM
IC50 [3]: 890 nM
Ki [4]: 50 nM
IC50 [5]: 33 nM
Ki [6]: > 1000 nM
Ki [7]: 8 nM

Cetrelimab: a fully human immunoglobulin (Ig) G4 kappa monoclonal antibody that binds to programmed death receptor-1 (PD-1) with high affinity and specificity
activity in solid tumors [8]: activity in solid tumors
binding to PD-1 [9]: high affinity and specificity
